In ChEMBL document CHEMBL4190171, “Chemical probes and inhibitors of bromodomains outside the BET family” (Medchemcomm, 2016):
Blank lines part the entries; values can stand above or below the compound they belong to.

Legend:
[1] = target: T1, Histone acetyltransferase KAT2B (Homo sapiens, UniProt Q92831)
[2] = system: Human immunodeficiency virus 1; experiment: Antiviral activity against HIV1 3B infected in human C8166 cells assessed as reduction in virus-induced cytopathic effect by measuring syncytium formation after 3 days by inverted microscopic analysis; format: functional, organism-based; settings: Human immunodeficiency virus 1, 3B, C8166, 72 h
[3] = system: THP-1; experiment: Inhibition of LPS-stimulated IL-6 secretion in human THP1 cells by ELISA; format: functional, cell-based
[4] = target: T2, ATPase family AAA domain-containing protein 2B (Homo sapiens, UniProt Q9ULI0); experiment: Binding affinity to partial length human ATAD2B (Q955 to R1082) expressed in bacterial expression system by Bromoscan method
T2 sequence (Q9ULI0 whole entry): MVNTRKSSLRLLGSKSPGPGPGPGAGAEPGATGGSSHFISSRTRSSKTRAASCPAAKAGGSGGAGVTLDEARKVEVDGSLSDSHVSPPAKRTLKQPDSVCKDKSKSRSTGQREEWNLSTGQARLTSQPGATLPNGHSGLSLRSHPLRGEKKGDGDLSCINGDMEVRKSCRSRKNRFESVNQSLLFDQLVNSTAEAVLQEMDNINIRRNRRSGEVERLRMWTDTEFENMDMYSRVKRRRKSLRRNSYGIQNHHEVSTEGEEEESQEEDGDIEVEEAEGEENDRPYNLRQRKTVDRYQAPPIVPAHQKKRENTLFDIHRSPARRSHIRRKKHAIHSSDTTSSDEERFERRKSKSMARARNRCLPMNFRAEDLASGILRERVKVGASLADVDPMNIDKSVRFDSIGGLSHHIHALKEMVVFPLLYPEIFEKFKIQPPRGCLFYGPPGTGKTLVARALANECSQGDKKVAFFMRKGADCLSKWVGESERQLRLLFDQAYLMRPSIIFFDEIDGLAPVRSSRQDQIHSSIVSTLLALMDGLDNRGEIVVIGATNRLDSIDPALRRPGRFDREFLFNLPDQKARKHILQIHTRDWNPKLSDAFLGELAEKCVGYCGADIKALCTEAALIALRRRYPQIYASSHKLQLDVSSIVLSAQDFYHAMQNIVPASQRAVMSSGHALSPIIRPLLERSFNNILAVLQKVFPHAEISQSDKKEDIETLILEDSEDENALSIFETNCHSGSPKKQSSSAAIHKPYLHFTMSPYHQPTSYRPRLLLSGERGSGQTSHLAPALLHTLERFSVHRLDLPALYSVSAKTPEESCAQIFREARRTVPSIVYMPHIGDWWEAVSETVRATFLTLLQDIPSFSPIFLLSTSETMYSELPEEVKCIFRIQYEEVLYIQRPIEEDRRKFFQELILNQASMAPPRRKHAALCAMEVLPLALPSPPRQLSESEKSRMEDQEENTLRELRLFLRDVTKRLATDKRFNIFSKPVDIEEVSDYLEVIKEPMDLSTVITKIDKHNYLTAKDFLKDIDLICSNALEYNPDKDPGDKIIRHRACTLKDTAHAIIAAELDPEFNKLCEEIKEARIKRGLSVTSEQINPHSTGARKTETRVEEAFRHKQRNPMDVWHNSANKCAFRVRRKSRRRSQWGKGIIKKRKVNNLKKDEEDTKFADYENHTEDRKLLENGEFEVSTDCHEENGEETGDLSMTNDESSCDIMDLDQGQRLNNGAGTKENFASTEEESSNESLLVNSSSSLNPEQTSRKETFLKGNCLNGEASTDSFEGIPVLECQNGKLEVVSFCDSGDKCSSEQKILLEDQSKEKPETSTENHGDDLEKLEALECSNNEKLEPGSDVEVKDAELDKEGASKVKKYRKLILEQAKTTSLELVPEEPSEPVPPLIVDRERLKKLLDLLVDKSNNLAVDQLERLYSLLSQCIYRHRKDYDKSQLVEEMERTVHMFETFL

[5] = target: T3, CREB-binding protein (Homo sapiens, UniProt Q92793); experiment: Inhibition of CBP bromodomain (unknown origin) using H3K56Ac peptide as substrate by Alphascreen assay
T3 sequence (Q92793 whole entry): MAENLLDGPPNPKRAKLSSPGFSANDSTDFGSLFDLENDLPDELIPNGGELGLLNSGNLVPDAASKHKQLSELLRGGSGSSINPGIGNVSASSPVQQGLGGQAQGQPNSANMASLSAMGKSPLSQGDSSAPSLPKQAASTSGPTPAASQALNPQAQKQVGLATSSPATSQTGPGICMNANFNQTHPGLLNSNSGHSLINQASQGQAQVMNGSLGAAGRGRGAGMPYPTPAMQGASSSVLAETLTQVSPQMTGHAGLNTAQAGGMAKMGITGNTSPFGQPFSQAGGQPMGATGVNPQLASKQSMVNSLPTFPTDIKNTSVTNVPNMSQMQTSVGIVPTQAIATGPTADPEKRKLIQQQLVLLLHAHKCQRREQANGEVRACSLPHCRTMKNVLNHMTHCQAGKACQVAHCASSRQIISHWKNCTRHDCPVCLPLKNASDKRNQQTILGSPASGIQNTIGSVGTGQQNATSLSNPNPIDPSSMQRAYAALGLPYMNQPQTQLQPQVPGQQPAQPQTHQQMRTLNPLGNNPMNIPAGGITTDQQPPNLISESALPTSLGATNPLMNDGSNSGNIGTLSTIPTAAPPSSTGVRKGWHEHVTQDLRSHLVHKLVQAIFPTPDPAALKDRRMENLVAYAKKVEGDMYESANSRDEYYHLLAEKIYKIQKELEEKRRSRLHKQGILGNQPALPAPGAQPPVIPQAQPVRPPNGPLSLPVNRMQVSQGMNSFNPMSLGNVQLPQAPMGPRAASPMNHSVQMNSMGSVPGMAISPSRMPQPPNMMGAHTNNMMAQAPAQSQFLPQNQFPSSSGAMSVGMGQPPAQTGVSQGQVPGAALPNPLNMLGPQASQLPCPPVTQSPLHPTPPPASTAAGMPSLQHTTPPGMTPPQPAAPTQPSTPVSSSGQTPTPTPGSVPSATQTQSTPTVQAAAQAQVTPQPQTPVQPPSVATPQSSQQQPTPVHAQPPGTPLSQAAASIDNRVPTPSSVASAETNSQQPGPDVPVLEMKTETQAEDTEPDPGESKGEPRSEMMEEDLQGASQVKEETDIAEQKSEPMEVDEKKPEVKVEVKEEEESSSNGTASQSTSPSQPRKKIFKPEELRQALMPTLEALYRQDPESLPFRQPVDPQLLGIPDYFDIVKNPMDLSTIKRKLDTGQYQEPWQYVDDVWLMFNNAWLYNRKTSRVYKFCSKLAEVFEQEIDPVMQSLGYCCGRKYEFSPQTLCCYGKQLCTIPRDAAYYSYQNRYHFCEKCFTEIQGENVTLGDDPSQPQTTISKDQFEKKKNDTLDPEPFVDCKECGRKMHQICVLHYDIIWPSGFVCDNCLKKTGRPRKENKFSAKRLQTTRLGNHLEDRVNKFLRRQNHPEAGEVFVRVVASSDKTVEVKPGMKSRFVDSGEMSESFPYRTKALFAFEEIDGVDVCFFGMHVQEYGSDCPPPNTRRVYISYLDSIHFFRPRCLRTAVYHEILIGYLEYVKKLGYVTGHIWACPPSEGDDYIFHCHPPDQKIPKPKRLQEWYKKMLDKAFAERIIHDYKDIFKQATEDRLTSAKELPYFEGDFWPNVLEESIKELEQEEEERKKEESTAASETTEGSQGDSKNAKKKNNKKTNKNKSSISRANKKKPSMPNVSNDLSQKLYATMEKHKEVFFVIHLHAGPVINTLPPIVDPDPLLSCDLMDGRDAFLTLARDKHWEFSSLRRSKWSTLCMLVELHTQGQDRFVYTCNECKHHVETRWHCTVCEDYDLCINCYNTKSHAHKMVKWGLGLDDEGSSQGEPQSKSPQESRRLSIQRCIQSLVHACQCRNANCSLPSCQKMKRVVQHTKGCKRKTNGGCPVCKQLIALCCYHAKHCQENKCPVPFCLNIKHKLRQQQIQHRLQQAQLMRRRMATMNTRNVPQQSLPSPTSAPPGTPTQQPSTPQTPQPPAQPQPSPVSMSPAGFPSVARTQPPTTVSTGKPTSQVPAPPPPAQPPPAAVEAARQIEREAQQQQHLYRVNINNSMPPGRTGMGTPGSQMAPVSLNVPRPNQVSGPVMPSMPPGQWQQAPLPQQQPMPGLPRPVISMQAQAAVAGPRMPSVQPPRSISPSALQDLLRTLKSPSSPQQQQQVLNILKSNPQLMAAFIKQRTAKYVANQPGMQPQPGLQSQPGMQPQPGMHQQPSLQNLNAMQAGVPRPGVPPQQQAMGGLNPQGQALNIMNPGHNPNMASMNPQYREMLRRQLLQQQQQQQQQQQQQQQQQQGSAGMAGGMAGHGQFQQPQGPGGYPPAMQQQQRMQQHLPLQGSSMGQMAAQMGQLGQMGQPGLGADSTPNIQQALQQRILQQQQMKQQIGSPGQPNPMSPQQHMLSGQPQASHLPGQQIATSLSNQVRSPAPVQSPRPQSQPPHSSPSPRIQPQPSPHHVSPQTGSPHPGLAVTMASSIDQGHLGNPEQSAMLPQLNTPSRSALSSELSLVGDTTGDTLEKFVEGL

[6] = target: T1, Histone acetyltransferase KAT2B; remark: listed apart in the source
Description: Displacement of biotinylated small molecule ligand from His/FLAG-tagged PCAF bromodomain (719 to 832 residues) (unknown origin) after 15 mins by AlphaLisa method

[7] = target: Cellular tumor antigen p53 (Homo sapiens, UniProt P04637); experiment: Inhibition of p53-induced (unknown origin) expressed in human RKO cells assessed as reduction in p53-induced p21 activation measured after 24 hrs by luciferase reporter gene assay; format: cell-based
[8] = target: T3, CREB-binding protein; experiment: Binding affinity to recombinant human His-tagged CBP bromodomain expressed in bacterial expression system by isothermal titration calorimetry
[9] = target: T4, Histone acetyltransferase p300 (Homo sapiens, UniProt Q09472); experiment: Binding affinity to recombinant human His-tagged EP300 expressed in bacterial expression system by isothermal titration calorimetry
T4 sequence (Q09472 whole entry): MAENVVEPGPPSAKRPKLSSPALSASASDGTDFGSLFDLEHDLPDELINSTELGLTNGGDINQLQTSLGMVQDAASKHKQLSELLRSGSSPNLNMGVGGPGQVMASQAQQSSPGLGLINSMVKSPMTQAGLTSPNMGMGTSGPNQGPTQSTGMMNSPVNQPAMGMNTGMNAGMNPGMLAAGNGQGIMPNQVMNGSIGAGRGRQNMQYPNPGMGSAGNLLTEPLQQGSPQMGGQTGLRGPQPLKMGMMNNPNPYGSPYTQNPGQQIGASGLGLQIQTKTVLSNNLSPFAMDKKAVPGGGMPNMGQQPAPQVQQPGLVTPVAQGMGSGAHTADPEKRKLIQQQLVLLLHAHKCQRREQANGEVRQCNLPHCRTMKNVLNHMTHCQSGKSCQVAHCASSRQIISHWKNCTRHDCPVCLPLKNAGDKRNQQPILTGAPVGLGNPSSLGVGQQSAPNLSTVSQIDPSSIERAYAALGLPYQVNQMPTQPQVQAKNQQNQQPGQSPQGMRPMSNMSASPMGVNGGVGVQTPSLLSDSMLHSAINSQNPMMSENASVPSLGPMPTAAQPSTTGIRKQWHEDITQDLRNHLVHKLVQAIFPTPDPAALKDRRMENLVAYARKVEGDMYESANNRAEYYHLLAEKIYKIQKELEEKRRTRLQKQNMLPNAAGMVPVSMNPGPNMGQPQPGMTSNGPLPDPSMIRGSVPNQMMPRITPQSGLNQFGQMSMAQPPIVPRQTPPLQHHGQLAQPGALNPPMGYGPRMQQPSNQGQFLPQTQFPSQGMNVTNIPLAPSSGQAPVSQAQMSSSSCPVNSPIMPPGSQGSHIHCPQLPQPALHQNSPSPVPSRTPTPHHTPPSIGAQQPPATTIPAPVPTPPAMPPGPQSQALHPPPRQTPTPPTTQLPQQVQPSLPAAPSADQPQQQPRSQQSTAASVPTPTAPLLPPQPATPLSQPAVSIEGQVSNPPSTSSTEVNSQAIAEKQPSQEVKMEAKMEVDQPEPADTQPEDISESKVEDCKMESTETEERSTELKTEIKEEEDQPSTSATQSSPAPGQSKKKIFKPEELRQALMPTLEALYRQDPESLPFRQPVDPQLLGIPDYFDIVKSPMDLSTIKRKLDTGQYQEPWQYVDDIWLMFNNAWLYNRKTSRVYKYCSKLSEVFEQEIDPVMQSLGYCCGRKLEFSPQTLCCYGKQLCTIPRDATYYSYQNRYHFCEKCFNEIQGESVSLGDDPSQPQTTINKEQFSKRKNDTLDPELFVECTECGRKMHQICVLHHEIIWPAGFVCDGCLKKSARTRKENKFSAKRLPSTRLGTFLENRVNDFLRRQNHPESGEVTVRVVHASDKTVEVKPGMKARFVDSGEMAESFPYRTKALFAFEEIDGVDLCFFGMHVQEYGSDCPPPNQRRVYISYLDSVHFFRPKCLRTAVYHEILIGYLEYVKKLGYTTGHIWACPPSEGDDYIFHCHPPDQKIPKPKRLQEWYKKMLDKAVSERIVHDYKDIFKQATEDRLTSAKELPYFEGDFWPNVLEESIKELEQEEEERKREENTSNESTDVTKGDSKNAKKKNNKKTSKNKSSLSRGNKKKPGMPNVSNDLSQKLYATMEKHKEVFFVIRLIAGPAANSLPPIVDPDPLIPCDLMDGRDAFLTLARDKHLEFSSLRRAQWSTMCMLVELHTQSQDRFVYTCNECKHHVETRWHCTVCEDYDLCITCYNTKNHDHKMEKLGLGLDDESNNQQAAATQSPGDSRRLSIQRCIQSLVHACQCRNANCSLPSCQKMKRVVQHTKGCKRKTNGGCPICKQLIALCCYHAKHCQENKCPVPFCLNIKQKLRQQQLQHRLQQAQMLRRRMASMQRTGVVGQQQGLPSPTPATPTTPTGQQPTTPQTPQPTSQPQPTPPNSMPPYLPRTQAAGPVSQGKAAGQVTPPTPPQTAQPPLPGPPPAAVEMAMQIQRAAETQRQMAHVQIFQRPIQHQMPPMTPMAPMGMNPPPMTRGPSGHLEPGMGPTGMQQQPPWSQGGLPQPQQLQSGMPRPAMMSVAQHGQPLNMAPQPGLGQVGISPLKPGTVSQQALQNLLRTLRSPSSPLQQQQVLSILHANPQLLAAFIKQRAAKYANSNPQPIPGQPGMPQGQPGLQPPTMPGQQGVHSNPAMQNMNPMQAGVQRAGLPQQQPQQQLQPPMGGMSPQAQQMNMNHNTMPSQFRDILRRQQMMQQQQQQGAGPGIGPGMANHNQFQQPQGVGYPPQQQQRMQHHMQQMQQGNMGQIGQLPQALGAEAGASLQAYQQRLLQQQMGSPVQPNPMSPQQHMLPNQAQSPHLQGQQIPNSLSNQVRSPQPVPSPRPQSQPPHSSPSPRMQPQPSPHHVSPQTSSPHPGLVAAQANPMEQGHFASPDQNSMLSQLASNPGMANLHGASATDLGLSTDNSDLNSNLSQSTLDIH

[10] = target: T4, Histone acetyltransferase p300; experiment: Binding affinity to EP300 (unknown origin) by isothermal titration calorimetry
[11] = target: T3, CREB-binding protein; experiment: Binding affinity to C-terminally biotinylated N-terminal His10-tagged human CBP bromodomain (R1081 to G1198 residues) expressed in Escherichia coli BL21(DE3) by isothermal titration calorimetry
[12] = target: T5, Bromodomain-containing protein 4 (Homo sapiens, UniProt O60885); experiment: Binding affinity to human BRD4 bromodomain1 by isothermal titration calorimetry
[13] = target: T5, Bromodomain-containing protein 4; experiment: Displacement of Halo-tagged histone H3.3 from Nluc-BRD4 (unknown origin) expressed in HEK293 cells using furimazine as substrate pretreated for 18 hrs followed by substrate addition measured within 5 mins by NanoBRET assay; format: cell-based
[14] = target: T3, CREB-binding protein; experiment: Binding affinity to CBP bromodomain (unknown origin) by tryptophan fluorescence assay
[15] = target: T5, Bromodomain-containing protein 4; experiment: Binding affinity to recombinant BRD4 bromodomain1 (unknown origin) by isothermal titration calorimetry

IC50 [1]: 0.93 µM
EC50 [2]: 11.5 µM
Compound: NCCCNCc1ccc(NCCCN)[n+]([O-])c1

IC50 [3]: < 10 µM
Compound: Cc1cc(=O)n(C)c2cc(N3C(=O)CC[C@H](NS(=O)(=O)CC(C)C)[C@H]3c3ccc(Cl)cc3)ccc12

Kd [4]: 0.001 µM
Compound: CO[C@H]1CNC[C@@H](OCC2CCC(F)(F)CC2)[C@@H]1Nc1ncc(-c2cncc(C)c2)c2cc(C)c(=O)[nH]c12

IC50 [5]: 1900 µM
Compound: CC1Nc2ccccc2NC1=O (stereo not given)

IC50 [6]: 0.07 µM
Compound: C[C@H](Nc1nn(C)c(=O)n(C)c1=O)[C@H](c1ccc(S(=O)(=O)c2ccccc2)cc1)N(C)C

IC50 [7]: 1.54 µM
Compound: COc1ccc(CCc2nc3cc(-c4c(C)noc4C)ccc3n2C[C@H](C)N2CCOCC2)cc1Cl

Kd [8]: 0.32 µM
Kd [9]: 0.35 µM
Compound: Cc1noc(C)c1-c1ccc2c(c1)nc(CCc1ccccc1)n2CCN1CCOCC1

Kd [10]: 0.167 to 0.343 µM
Kd [11]: 0.151 to 0.208 µM
Kd [12]: 5.59 µM
IC50 [13]: 0.6 µM
Compound: CCC(=O)N1CCOc2c(cc(-c3ccc(OC)c(OC)c3)cc2OC[C@H]2CCCN(C)C2)C1

Kd [14]: 8 µM
Compound: CC(=O)NCCCC[C@@H]1NC(=O)[C@H](Cc2c[nH]c3ccccc23)NC(=O)[C@@H](NC(C)=O)CSSCC(C(=O)N[C@@H](Cc2ccccc2)C(=O)N[C@@H](CCCCN)C(N)=O)NC(=O)[C@H](CC(C)C)NC(=O)[C@H](CCCCN)NC1=O (single isomer, unassigned)

Kd [15]: 20 µM
Compound: CCCOc1ccc(CCc2nc3cc(-c4c(C)noc4C)ccc3n2CCN2CCOCC2)cc1
